Some test systems named below: SK-OV-3 ovarian; HS 578T breast; SF-539 CNS; CCRF-CEM leukemia; 786-0 renal; BT-549 breast; COLO 205 colon; EKVX NSCLC.
Test in all cases: growth of human tumour cells (NCI), 48 h

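These data come from cells grown in 96-well plates and exposed to compound for 48 hours at five concentrations. Here, GI50 denotes the concentration required for 50% inhibition of growth. The concentration for full growth arrest is given as TGI.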

`CCc1cc2c(c(OCC(F)(F)F)c(C(=O)NC3CCN(C(=O)CO)CC3)n2C)c(=O)n1CC(=O)c1ccccc1`: the GI50 is greater than 100 µM in the experiment on SK-OV-3 ovarian; 34.4 µM in the experiment on HS 578T breast; 36.5 µM in the experiment on SF-539 CNS; 38.5 µM in the experiment on CCRF-CEM leukemia; 33.4 µM with 786-0 renal; 51.3 µM with BT-549 breast. In addition, the GI50 with COLO 205 colon and in the experiment with EKVX NSCLC was greater than 100 µM each time. The TGI in the experiment on SK-OV-3 ovarian, in the experiment with HS 578T breast, in the experiment with SF-539 CNS, with CCRF-CEM leukemia, with 786-0 renal and with BT-549 breast was greater than 100 µM throughout. The TGI in the experiment with COLO 205 colon and in the experiment on EKVX NSCLC was greater than 100 µM in each case.
`COc1ccc2c(n1)Sc1nc3ccccc3nc1N2`: the TGI is greater than 100 µM in the experiment on SK-OV-3 ovarian; greater than 100 µM with HS 578T breast; 50.1 µM in the experiment on SF-539 CNS; greater than 100 µM in the experiment on CCRF-CEM leukemia; greater than 100 µM with 786-0 renal; greater than 100 µM in the experiment on BT-549 breast. Besides, the TGI is greater than 100 µM in the experiment with COLO 205 colon and 60.3 µM with EKVX NSCLC.
In the case of `CCOC(=O)c1ccc(N2NC(=O)/C(=C/c3ccc([N+](=O)[O-])o3)C2=O)cc1`, the GI50 in the experiment on SK-OV-3 ovarian is greater than 39.4 µM; with HS 578T breast, greater than 45.6 µM; in the experiment on SF-539 CNS it was 18.8 µM; in the experiment on CCRF-CEM leukemia, 2 µM; in the experiment on 786-0 renal it was 19.1 µM; in the experiment on BT-549 breast it was 20.1 µM. For the same molecule, the GI50 in the experiment on COLO 205 colon was 4.06 µM; in the experiment on EKVX NSCLC it was greater than 37.7 µM. Moreover, the TGI with SK-OV-3 ovarian is greater than 54.1 µM; in the experiment on HS 578T breast, greater than 75.1 µM; with SF-539 CNS it was 46 µM; in the experiment with CCRF-CEM leukemia, greater than 61.6 µM; in the experiment with 786-0 renal, 37.3 µM; in the experiment with BT-549 breast, 39.7 µM. The TGI is 9.46 µM in the experiment with COLO 205 colon and greater than 53.1 µM in the experiment with EKVX NSCLC.
For `CCCCCCOC(=O)CC1=C(C)/C(=C/c2[nH]c(-c3ccc[nH]3)cc2OC)N=C1C`, the GI50 is 0.279 µM in the experiment on SK-OV-3 ovarian; 0.133 µM with HS 578T breast; 0.0635 µM with SF-539 CNS; 0.0256 µM in the experiment on CCRF-CEM leukemia; 0.0829 µM in the experiment with 786-0 renal; 0.0865 µM with BT-549 breast. For the same molecule, the GI50 in the experiment with COLO 205 colon was 0.087 µM; in the experiment with EKVX NSCLC it was 0.0576 µM. For the same molecule, the TGI in the experiment on SK-OV-3 ovarian came to 1.24 µM; in the experiment with HS 578T breast, 1.17 µM; in the experiment on SF-539 CNS, 1.27 µM; in the experiment on CCRF-CEM leukemia, 1.56 µM; in the experiment on 786-0 renal, 1.16 µM; in the experiment with BT-549 breast, 1.59 µM. For the same molecule, the TGI in the experiment with COLO 205 colon came out at 1.09 µM; in the experiment on EKVX NSCLC, 1.64 µM.
With `Cc1nnn(C)c1-c1cnc2c3ccc(C(C)(C)O)cc3n([C@H](c3ccccc3)C3CCOCC3)c2c1`, the GI50 in the experiment on SK-OV-3 ovarian was less than 0.01 µM; in the experiment on HS 578T breast, less than 0.01 µM; in the experiment with SF-539 CNS, less than 0.0182 µM; with CCRF-CEM leukemia, 0.0663 µM; with 786-0 renal, 0.0707 µM; in the experiment with BT-549 breast, 3.61 µM. Moreover, the values for the GI50 in the experiment on COLO 205 colon and with EKVX NSCLC were less than 0.01 µM and 0.221 µM, respectively. The TGI in the experiment with SK-OV-3 ovarian is 16.4 µM; with HS 578T breast, greater than 100 µM; with SF-539 CNS, 51.1 µM; in the experiment with CCRF-CEM leukemia, greater than 100 µM; with 786-0 renal it was 21.5 µM; in the experiment with BT-549 breast, 24 µM. In addition, the TGI is 30.1 µM with COLO 205 colon and greater than 71.7 µM in the experiment on EKVX NSCLC.
As for `Cc1ccc(/C(=N/NS(=O)(=O)c2cc(C)c(Cl)cc2Cl)Sc2cc(Cl)c(C)cc2S(N)(=O)=O)cc1`, the GI50 with SK-OV-3 ovarian was greater than 100 µM; in the experiment on HS 578T breast, greater than 100 µM; in the experiment on SF-539 CNS, greater than 100 µM; in the experiment with CCRF-CEM leukemia it was greater than 100 µM; in the experiment on 786-0 renal, greater than 100 µM; with BT-549 breast, 83.5 µM. Further, the values for the GI50 in the experiment on COLO 205 colon and in the experiment with EKVX NSCLC were greater than 100 µM and 70.9 µM, respectively. The TGI with SK-OV-3 ovarian, with HS 578T breast, in the experiment with SF-539 CNS, in the experiment on CCRF-CEM leukemia, in the experiment with 786-0 renal and in the experiment on BT-549 breast was greater than 100 µM throughout. In addition, the TGI in the experiment with COLO 205 colon and in the experiment with EKVX NSCLC was greater than 100 µM each time.
Turning to `Oc1nc(N2CCOCC2)sc1/C=C1\C=Nc2ccccc21`, the GI50 in the experiment on SK-OV-3 ovarian, in the experiment with HS 578T breast, in the experiment on SF-539 CNS, in the experiment on CCRF-CEM leukemia, with 786-0 renal and in the experiment on BT-549 breast was greater than 100 µM throughout. Besides, the GI50 in the experiment on COLO 205 colon and in the experiment with EKVX NSCLC was greater than 100 µM in each case. The TGI with SK-OV-3 ovarian, in the experiment with HS 578T breast, in the experiment with SF-539 CNS, in the experiment with CCRF-CEM leukemia, in the experiment on 786-0 renal and with BT-549 breast was greater than 100 µM each time. The TGI in the experiment on COLO 205 colon and in the experiment with EKVX NSCLC was greater than 100 µM throughout.
Turning to `O=C(Nc1ccc(Cl)c(C(F)(F)F)c1)Nc1ccc(-c2cccnc2)cc1N1CCC(CO)CC1`, the GI50 in the experiment on SK-OV-3 ovarian was 2.22 µM; with HS 578T breast, 2.79 µM; in the experiment with SF-539 CNS, 2.29 µM; with CCRF-CEM leukemia it was 2.9 µM; with 786-0 renal, 1.84 µM; in the experiment on BT-549 breast, 2.13 µM. Also, the GI50 in the experiment with COLO 205 colon is 1.65 µM; in the experiment with EKVX NSCLC it was 1.72 µM. Moreover, the TGI is 6.59 µM with SK-OV-3 ovarian; 8.46 µM in the experiment on HS 578T breast; 5.84 µM in the experiment with SF-539 CNS; greater than 100 µM with CCRF-CEM leukemia; 4.52 µM with 786-0 renal; 6.22 µM in the experiment on BT-549 breast. For the same molecule, the values for the TGI with COLO 205 colon and in the experiment on EKVX NSCLC were 3.18 µM and greater than 100 µM, respectively.
In the case of `CN1CCc2ccccc2C1Cc1ccccc1NC(=O)c1sc2ccccc2c1Cl` (centres undefined), the TGI in the experiment with SK-OV-3 ovarian, in the experiment on HS 578T breast, in the experiment on SF-539 CNS, in the experiment on CCRF-CEM leukemia, with 786-0 renal and in the experiment with BT-549 breast was greater than 100 µM in each case. In addition, the TGI with COLO 205 colon and with EKVX NSCLC was greater than 100 µM each time.
With `OCc1ccc(-c2nc(-c3ccc4c(c3)OCO4)c(-c3ccccn3)[nH]2)cc1`, the GI50 in the experiment on SK-OV-3 ovarian, with HS 578T breast, with SF-539 CNS, with CCRF-CEM leukemia, in the experiment on 786-0 renal and in the experiment with BT-549 breast was greater than 25 µM throughout. Further, the GI50 in the experiment with COLO 205 colon and in the experiment on EKVX NSCLC was greater than 25 µM throughout. The TGI with SK-OV-3 ovarian, in the experiment with HS 578T breast, in the experiment with SF-539 CNS, in the experiment with CCRF-CEM leukemia, in the experiment with 786-0 renal and with BT-549 breast was greater than 25 µM in each case. Further, the TGI in the experiment on COLO 205 colon and in the experiment with EKVX NSCLC was greater than 25 µM throughout.

Values taken from PubChem BioAssay (NCI).
